Experimental data published in article PMC4897788, “Design, biological evaluation and 3D QSAR studies of novel dioxin-containing pyrazoline derivatives with thiourea skeleton as selective HER-2 inhibitors” (Scientific Reports, 2016).

Key:
EGFR = EGFR (Homo sapiens, UniProt P00533); assay: EGFR autophosphorylation kinase assay (DELFIA/time-resolved fluorometry)
Description: (§2) Both EGFR and HER-2 kinase assays were set up to assess the level of autophosphorylation based on DELFIA/Time-Resolved Fluorometry. […] Then, 10 μL of 5× buffer (containing 20 mM HEPES, 2 mM MnCl2, 100 μM Na3VO4, and 1 mM DTT) and 20 μL of 0.1 mM ATP-50 mM MgCl2 was added for 1 h. Positive and negative controls were included in each plate by incubation of enzyme with or without ATP-MgCl2. At the end of incubation, liquid was aspirated and plates were washed three times with wash buffer. A 75 μL (400 ng) sample of europium-labeled anti-phosphotyrosine antibody was added to each well for another 1 h of incubation. […] The IC50 was obtained from curves of percentage inhibition with eight concentrations of compound. As the contaminants in the enzyme preparation are fairly low, the majority of the signal detected by the anti-phosphotyrosine antibody is from EGFR or HER-2. The experiment was performed for three independent times and in triplicate each time.

human erythrocytes = assay: Hemolysis test; type: cell-based; settings: lytic concentration 30%
Description: Hemolytic activity was assayed using fresh capillary human blood. Erythrocytes were collected by centrifuging the blood three times in chilled phosphate buffered saline (PBS at 4 °C) at 1000 × g for 10 min. The final pellet was resuspended in PBS to give a 2% w/v solution. Using a microtitre plate, 100 μL of the erythrocyte solution was added to dextran, PLL, stearyl-PLL or stearyl-PLL+ LDL (1–1000/μg/mL) in a volume of […]. Samples were then incubated for 3 h and the microtitre plate was centrifuged then at 1000 × g for 10 min and the supernatants (100 μL) transferred into a new microtitre plate. Hemoglobin release was determined spectrophotometrically using a microtitre plate reader (absorbance at 550 nm). Results were expressed as the amount of released hemoglobin induced by the compounds as a percentage of the total. Hemolysis test was tested according to the guide of biological evaluation of medical device (SFDA, China).

HER-3 = target: T1, HER-3 (Homo sapiens, UniProt P21860); assay: HER-3 inhibitory assay; type: biochemical
T1 construct: HER-3 cytoplasmic domain (HER-3-CD, amino acids 665–1339); His6 (N); made in house
T1 sequence (P21860 665-1339): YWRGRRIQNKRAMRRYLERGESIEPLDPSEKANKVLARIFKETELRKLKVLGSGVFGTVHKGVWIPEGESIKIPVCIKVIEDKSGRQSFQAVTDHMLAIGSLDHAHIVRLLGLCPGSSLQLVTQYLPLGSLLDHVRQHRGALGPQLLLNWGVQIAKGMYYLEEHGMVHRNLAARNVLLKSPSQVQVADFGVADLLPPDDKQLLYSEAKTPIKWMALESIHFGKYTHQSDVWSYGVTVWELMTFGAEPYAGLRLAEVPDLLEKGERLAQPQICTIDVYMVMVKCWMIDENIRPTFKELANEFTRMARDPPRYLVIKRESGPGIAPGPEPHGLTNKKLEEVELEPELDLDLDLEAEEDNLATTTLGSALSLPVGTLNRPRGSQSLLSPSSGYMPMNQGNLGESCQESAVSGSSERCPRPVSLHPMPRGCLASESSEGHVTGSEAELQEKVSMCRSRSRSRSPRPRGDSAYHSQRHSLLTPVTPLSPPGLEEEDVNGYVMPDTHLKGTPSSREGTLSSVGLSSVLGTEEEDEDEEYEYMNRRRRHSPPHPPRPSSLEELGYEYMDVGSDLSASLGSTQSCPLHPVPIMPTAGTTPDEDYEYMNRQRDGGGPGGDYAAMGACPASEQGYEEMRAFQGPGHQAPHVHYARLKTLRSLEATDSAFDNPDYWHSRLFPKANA
Description: A sequence that encodes (His)6 was located at the 5′ upstream to the HER-2 and EGFR sequences. Sf-9 cells were infected for 3 days for protein expression. Sf-9 cell pellets were solubilized at 0 °C in a buffer at pH 7.4 containing 50 mM HEPES, 10 mM NaCl, 1% Triton, 10 μM ammonium molybdate, 100 μM sodium vanadate, 10 μg/mL aprotinin, 10 μg/mL leupeptin, 10 μg/mL pepstatin, and 16 μg/mL benzamidine, HCl for 20 min followed by 20 min centrifugation. Crude extract supernatant was passed through an equilibrated Ni–NTA superflow packed column and washed with 10 mM and then 100 mM imidazole to remove nonspecifically bound material. Histidine-tagged proteins were eluted with 250 and 500 mM imidazole and dialyzed against 50 mM NaCl, 20 mM HEPES, 10% glycerol and 1 μg/mL each of aprotinin, leupeptin, and pepstatin for 2 h. The entire purification procedure was performed at 4 °C or on ice.
A 1.8 Kb cDNA encoded for human HER-3 cytoplasmic domain (HER-3-CD, amino acids 665–1339) was applied to perform the experiment using the same method as EGFR/HER-2.

[1] = system: MDA-MB-453 human breast cancer cell line; assay: Anti-proliferation assay (MTT), MDA-MB-453; type: cell-based; settings: 24 h
Description: (§1) MCF-7 human breast cancer cells was cultured in DMEM/10% fetal bovine serum, in 5% CO2 water saturated atmosphere at 37 °C. MDA-MB-453 human breast cancer cells was cultured in L-15 medium in 100% air at 37 °C. Cell suspensions (10000/mL) were prepared and 100 μL/well dispensed into 96-well plates (Costar) giving 1000 cells/well. The plates were returned to the incubator for 24 h to allow the cells to reattach. These compounds were initially prepared at 20 mM in DMSO. Aliquots (200 μL) were diluted into 20 mL culture medium giving 200 μM, and 10 serial dilutions of 3× prepared. Aliquots (100 μL) of each dilution were added to the wells, giving doses ranging from 100 μM to 0.005 μM. After a further incubated at 37 °C for 24 h in a humidified atmosphere with 5% CO2, the cell viability was assessed by the conventional 3-(4,5-dimethylthiazol-2-yl)-2,5-diphenyltetrazolium bromide (MTT) reduction assay and carried out strictly according to the manufacturer instructions (Sigma). The absorbance at 590 nm was recorded using LX300 Epson Diagnostic micro-plate reader. Then GI50 was calculated using SPSS 13.0 software.

[2] = system: MCF-7 human breast cancer cell line; assay: Anti-proliferation assay (MTT), MCF-7; type: cell-based; settings: MCF7, 24 h
Description: as §1

[3] = Cytotoxicity test (MTT), NIH-3T3; type: cell-based; settings: mouse, NIH-3T3 mouse embryonic fibroblast cells, NIH3T3
Description: The cytotoxic activity in vitro was measured against mouse fibroblast NIH-3T3 cell using the MTT assay. Cells were cultured in a 96-well plate at a density of 5 × 10^5 cells and different concentrations of compounds were respectively added to each well. The incubation was permitted at 37 °C, 5% CO2 atmosphere for 24 h before the cytotoxicity assessments. 20 μL MTT reagent (4 mg/mL) was added per well 4 h before the end of the incubation. Four hours later, the plate was centrifuged at 1200 rcf for 5 min and the supernatants were removed, each well was added with 200 μL DMSO. The absorbance was measured at a wavelength of 490 nm (OD 490 nm) on an ELISA microplate reader. Three replicate wells were used for each concentration and each assay was measured three times, after which the average of IC50 was calculated. The cytotoxicity of each compound was expressed as the concentration of compound that reduced cell viability to 50% (IC50).

VEGFR-2 = target: T2, VEGFR-2 (Homo sapiens, UniProt P35968); assay: VEGFR-2 inhibitory assay; type: biochemical
T2 construct: either the phosphorylated or nonphosphorylated form of the VEGFR-2 kinase domain
T2 sequence (P35968 834-1162 limits assumed, species assumed): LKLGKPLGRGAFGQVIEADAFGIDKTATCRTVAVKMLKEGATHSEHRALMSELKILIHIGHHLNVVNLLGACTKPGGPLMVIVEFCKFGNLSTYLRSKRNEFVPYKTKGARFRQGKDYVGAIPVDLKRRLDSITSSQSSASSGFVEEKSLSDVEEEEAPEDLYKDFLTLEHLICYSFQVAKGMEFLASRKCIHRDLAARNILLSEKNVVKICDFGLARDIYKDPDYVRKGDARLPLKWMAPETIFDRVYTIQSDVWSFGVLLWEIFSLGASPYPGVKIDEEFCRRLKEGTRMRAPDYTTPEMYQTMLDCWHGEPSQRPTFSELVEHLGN
Description: In a 96-well plate, 5 nM/L of either the phosphorylated or nonphosphorylated form of the VEGFR-2 kinase domain was incubated with selected compounds (10-point titration ranging from 4 μM to 0.1 μM), 1 μM/L gastrin substrate, 20 mM/L Tris-HCl, pH 7.5, 10 mM/L MgCl2, 100 mM/L NaCl, 1.5 mM/L EGTA, 1 mM/L DTT, 0.2 mM/L sodium orthovanadate, and 20 μg/mL BSA for 30 min at 25 °C. ATP was added at a final concentration of 11.8 μM and incubated for 60 min at room temperature. Eu-labeled antiphosphotyrosine pT66 antibody (Perkin- Elmer) was then used for detection. The fluorescence at 665 nM was measured with a Wallac Victor plate reader using a time delay of 50 μs. The experiment was performed for three independent times and in triplicate each time.

HER-2 = HER-2 (Homo sapiens, UniProt P04626); assay: HER-2 autophosphorylation kinase assay (DELFIA/time-resolved fluorometry); settings: for SI EGFR/HER-2: selectivity index, IC50 EGFR/IC50 HER-2
Sequence of HER-2 (P04626 676-1245): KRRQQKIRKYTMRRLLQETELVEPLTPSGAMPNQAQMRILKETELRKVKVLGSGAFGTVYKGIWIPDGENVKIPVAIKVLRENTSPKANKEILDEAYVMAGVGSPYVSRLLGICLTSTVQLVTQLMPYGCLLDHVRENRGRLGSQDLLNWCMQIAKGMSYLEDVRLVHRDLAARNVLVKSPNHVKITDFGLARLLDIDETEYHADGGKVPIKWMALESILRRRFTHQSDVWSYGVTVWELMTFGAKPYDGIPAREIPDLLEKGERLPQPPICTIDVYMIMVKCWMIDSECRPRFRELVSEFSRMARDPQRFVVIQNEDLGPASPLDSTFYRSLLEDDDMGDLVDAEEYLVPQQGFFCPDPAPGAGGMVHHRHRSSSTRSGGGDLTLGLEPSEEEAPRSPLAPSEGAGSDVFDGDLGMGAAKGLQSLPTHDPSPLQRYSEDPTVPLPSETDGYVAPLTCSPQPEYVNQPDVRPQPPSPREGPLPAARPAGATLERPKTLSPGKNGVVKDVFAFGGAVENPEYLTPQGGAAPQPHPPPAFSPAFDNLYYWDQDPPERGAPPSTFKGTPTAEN
Description: as §2

FAK = target: T3, FAK (Homo sapiens, UniProt Q05397); assay: FAK inhibitory assay (Kinase-Glo); type: biochemical
T3 construct: human-recombinant full-length FAK
T3 sequence (Q05397 whole entry): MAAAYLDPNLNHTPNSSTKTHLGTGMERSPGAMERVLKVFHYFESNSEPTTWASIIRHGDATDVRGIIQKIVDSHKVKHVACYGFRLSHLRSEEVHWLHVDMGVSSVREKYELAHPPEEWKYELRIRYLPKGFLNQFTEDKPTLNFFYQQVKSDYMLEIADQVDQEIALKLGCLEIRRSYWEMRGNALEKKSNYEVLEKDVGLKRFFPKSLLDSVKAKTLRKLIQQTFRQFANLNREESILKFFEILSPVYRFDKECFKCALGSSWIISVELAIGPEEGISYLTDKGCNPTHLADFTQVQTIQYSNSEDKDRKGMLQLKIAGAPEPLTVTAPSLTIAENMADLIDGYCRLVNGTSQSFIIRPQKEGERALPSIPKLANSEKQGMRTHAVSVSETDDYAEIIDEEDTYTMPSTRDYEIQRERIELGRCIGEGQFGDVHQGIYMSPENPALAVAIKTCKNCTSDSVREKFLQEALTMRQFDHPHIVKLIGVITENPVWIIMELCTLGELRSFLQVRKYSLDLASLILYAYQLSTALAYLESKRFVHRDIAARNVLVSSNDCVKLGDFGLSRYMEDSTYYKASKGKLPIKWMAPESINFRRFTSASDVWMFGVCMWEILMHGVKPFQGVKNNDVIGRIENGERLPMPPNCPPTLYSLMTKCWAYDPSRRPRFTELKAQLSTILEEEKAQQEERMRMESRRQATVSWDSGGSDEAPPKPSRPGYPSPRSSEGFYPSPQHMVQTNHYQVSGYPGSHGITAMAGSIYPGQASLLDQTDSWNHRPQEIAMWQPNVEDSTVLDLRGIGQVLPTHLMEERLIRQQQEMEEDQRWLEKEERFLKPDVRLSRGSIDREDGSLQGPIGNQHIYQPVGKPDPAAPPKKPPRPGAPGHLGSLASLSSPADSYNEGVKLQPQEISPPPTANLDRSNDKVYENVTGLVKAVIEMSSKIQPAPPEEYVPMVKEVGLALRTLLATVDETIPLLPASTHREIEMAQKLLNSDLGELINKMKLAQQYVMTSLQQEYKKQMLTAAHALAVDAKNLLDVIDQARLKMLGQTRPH
Description: Selected compounds were tested against FAK. In a typical study, human-recombinant full-length FAK was incubated in kinase buffer containing ATP and the substrate for 4 h at room temperature with or without the presence of the corresponding coumpounds. The final concentration of drug as 100, 30, 10, 3 μg/mL. The remaining ATP in solution was then quantified utilizing the Kinase-Glo-luminescence kit (Promega).

Sequence of EGFR (P00533 669-1210): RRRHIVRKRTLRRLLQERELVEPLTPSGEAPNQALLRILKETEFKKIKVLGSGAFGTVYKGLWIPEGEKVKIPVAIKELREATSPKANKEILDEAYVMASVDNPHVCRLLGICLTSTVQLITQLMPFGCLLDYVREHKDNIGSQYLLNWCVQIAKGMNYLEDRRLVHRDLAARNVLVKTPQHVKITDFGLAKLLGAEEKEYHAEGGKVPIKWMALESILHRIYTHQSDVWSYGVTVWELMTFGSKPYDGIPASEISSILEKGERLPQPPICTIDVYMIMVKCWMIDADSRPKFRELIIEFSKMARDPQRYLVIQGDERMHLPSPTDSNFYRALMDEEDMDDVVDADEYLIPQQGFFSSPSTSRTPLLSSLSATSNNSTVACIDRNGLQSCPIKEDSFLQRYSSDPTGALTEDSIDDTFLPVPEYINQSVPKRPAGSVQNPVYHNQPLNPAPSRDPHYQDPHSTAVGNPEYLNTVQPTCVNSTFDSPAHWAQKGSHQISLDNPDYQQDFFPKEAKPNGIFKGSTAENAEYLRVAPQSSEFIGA

Compound | IC50 (EGFR) [µM] | Hemolysis LC30 (human erythrocytes) [µg/mL] | IC50 (HER-3) [µM] | GI50 [1] [µM] | GI50 [2] [µM] | GI50 at 24 h [3] [µM] | IC50 (VEGFR-2) [µM] | IC50 (HER-2) [µM] | SI EGFR/HER-2 (HER-2) | IC50 (FAK) [µM]
NC(=S)N1N=C(c2ccc3c(c2)OCCO3)CC1c1ccc(Br)cc1 (centres unmarked) [Compound C13, 5-(4-bromophenyl)-3-(2,3-dihydrobenzo[b][1,4]dioxin-6-yl)-4,5-dihydro-1H-pyrazole-1-carbothioamide] | 82 ± 7.84 | >10000 | 2.46 ± 0.23 | 3.24 ± 0.3 | 123 ± 11.2 | 148 ± 2.02 | 25.8 ± 2.41 | 0.8 ± 0.07 | 102.5 | 36.5 ± 3.42
CSc1ccc(C2CC(c3ccc4c(c3)OCCO4)=NN2C(N)=S)cc1 (centres unmarked) [Compound C15, 3-(2,3-dihydrobenzo[b][1,4]dioxin-6-yl)-5-(4-(methylthio)phenyl)-4,5-dihydro-1H-pyrazole-1-carbothioamide] | 27.5 ± 2.46 | >10000 | 17.9 ± 1.48 | 0.95 ± 0.08 | 12.1 ± 1.17 | 154 ± 1.75 | 8.75 ± 0.77 | 0.29 ± 0.02 | 94.8 | 40.3 ± 3.88
Cc1ccc(C2CC(c3ccc4c(c3)OCCO4)=NN2C(N)=S)cc1 (centres unmarked) [Compound C9, 3-(2,3-dihydrobenzo[b][1,4]dioxin-6-yl)-5-(p-tolyl)-4,5-dihydro-1H-pyrazole-1-carbothioamide] | 65.2 ± 5.88 | >10000 | 6.32 ± 0.58 | 1.38 ± 0.12 | 56.2 ± 5.41 | 199.1 ± 1.6 | 11.5 ± 1.07 | 0.37 ± 0.03 | 176.1 | 36.1 ± 3.21
NC(=S)N1N=C(c2ccc3c(c2)OCCO3)CC1c1ccc(C(F)(F)F)cc1 (centres unmarked) [Compound C17, 3-(2,3-dihydrobenzo[b][1,4]dioxin-6-yl)-5-(4-(trifluoromethyl)phenyl)-4,5-dihydro-1H-pyrazole-1-carbothioamide] | 79.7 ± 7.01 | >10000 | 8.45 ± 0.78 | 0.55 ± 0.02 | 96.4 ± 9.22 | 185 ± 3.15 | 5.16 ± 0.5 | 0.21 ± 0.02 | 379.6 | 30.1 ± 2.76
COc1ccc(C2CC(c3ccc4c(c3)OCCO4)=NN2C(N)=S)cc1 (centres unmarked) [Compound C10, 3-(2,3-dihydrobenzo[b][1,4]dioxin-6-yl)-5-(4-methoxyphenyl)-4,5-dihydro-1H-pyrazole-1-carbothioamide] | 37.9 ± 3.75 | >10000 | 10.7 ± 0.96 | 0.25 ± 0.02 | 18.2 ± 1.71 | 204 ± 3.05 | 6.91 ± 0.64 | 0.08 ± 0.006 | 474.4 | 64 ± 5.95
